For orientation: EC50 means the midpoint of the concentration-response curve. The term IC50 denotes the concentration needed to halve the response being measured. Broadly, the Kd is a measure of binding affinity in units of concentration. High values mean lower affinity, low ones higher affinity. Broadly, the melting point is the temperature, or range, at which the solid turns liquid.

For the first data set, the system named is THP-1 cells. Briefly: hMCP-1 mediated chemotaxis assay. It is filed as cell-based, human. Particulars: hMCP-1 induced concentration dependent cell migration. On the procedure: c) hMCP-1 Mediated Chemotaxis Assay.
In vitro chemotaxis assays were performed using either the human monocytic cell line THP-1 or peripheral blood mixed monocytes obtained from fresh human blood purified by erythrocyte sedimentation followed by density gradient centrifugation over 9.6%(w/v) sodium metrizoate and 5.6%(w/v) polysaccharide, density 1.077 g/ml (Lymphoprep™ Nycomed). Cell migration through polycarbonate membranes was measured by enumerating those passing through either directly by Coulter counting or indirectly by use of a colourimetric viability assay measuring the cleavage of a tetrazolium salt by the mitochondrial respiratory chain (Scudiero D. A. et al. 1988, Cancer Res., 48, 48274833).
Chemoattractants were introduced into a 96-well microtiter plate which forms the lower well of a chemotaxis chamber fitted with a PVP-free 5 μm poresize polycarbonate adhesive framed filter membrane (NeuroProbe MB series, Cabin John, Md. 20818, USA) according to the manufacturer's instructions. The chemoattractant was diluted as appropriate in synthetic cell culture medium, RPMI 1640 (Gibco) supplemented with 2 mM glutamine and 0.5% BSA. […] The plate was incubated at 37° C. for 3 h and the absorbance of the soluble formazan product was read on a microtitre plate reader at 450 nm. […]
For “MCP-1: human Monocyte Chemoattractant Protein-1, a C—C chemokine; natural ligand used to validate the assays”, the “concentration of maximal cell migration (biphasic response)” value is reported as 0.5-1.0 nm.

The test system of the next data set is THP-1 cells. Briefly: MCP-1 mediated calcium flux in THP-1 cells. The data set is classed as cell-based, human. The settings on record: stimulation of THP-1 cells with hMCP-1; dose response curves; read-out: approximate EC50 for rise in [Ca2+]i. On the procedure:
b) MCP-1 Mediated Calcium Flux in THP-1 Cells
The human monocytic cell line THP-1 was grown in a synthetic cell culture medium RPMI 1640 supplemented with 10% foetal calf serum, 2 mM glutamine and Penicillin-Streptomycin (at 50 μg streptomycin/mil, Gibco BRL). THP-1 cells were washed in HBSS (lacking Ca^2+ and Mg^2+)+1 mg/ml BSA and resuspended in the same buffer at a density of 3×10^6 cells/ml. The cells were then loaded with […] FURA-2/AM for 30 min at 37° C., washed twice in HBSS, and resuspended at 1×10^6 cells/ml. […] The cuvette was placed in a fluorescence spectrophotometer (Perkin Elmer, Norwalk, Conn.) and preincubated for 4 min at 37° C. with stirring. Fluorescence was recorded over 70 sec and cells were stimulated by addition of hMCP-1 to the cuvette after 10 sec. [Ca^2+]i was measured by excitation at 340 nm and 380 nm alternately and subsequent measurement of the intensity of the fluorescence emission at 510 nm. […] Rmax is the maximal fluorescence ratio determined after addition of […] Ionomycin, Rmin is the minimal ratio determined by the subsequent addition of a Ca^2+ free solution containing 5 mM EGTA, and Sf2/Sb2 is the ratio of fluorescence values at 380 nm excitation determined at Rmin and Rmax, respectively. […]
On to “MCP-1: human Monocyte Chemoattractant Protein-1, a C—C chemokine; natural ligand used to validate the assays”, for which the EC50 is approximately 2 nM.

The target of the next data set is T1, MCP-1 receptor B (CCR2B) (Homo sapiens, UniProt P41597).
T1 construct: expressed in transfected cells; membrane fragments
T1 sequence (P41597 1-360 isoform P41597-2): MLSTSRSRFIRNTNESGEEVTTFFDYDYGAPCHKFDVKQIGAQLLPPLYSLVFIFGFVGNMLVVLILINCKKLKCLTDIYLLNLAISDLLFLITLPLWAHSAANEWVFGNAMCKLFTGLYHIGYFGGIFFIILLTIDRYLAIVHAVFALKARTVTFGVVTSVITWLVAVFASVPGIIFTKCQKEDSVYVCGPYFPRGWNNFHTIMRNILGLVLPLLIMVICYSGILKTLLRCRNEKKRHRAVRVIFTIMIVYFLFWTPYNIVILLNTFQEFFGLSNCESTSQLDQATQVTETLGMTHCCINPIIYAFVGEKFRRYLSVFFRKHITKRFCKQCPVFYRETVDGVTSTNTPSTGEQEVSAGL
Nature of the data set: hMCP-1 receptor-binding assay (125I-MCP-1 competition on CHO-CCR2B cell membranes). Particulars: competition with 100 pM labelled MCP-1; CHO-CCR2B cell membranes; read-out: IC50 in the hMCP-1 receptor binding assay. From the text:
a) hMCP-1 Receptor-Binding Assay i) Cloning and Expression of hMCP-1 Receptor
The MCP-1 receptor B (CCR2B) cDNA was cloned by PCR from THP-1 cell RNA using suitable oligonucleotide primers based on the published MCP-1 receptor sequences (Charo et al., 1994, Proc. Natl. Acad. Sci. USA, 91, 2752). The resulting PCR products were cloned into vector PCR-II™ (InVitrogen, San Diego, Calif.). Error free CCR2B cDNA was subcloned as a Hind III-Not I fragment into the eukaryotic expression vector pcDNA3 (InVitrogen) to generate pcDNA3/CC-CKR2A and pcDNA3/CCR2B respectively.
Linearised pcDNA3/CCR2B DNA was transfected into CHO-K1 cells by calcium phosphate precipitation (Wigler et al., 1979, Cell, 16, 777). Transfected cells were selected by the addition of Geneticin Sulphate (G418, Gibco BRL) at 1 mg/ml, 24 hours after the cells had been transfected. Preparation of RNA and Northern blotting were carried out as described previously (Needham et al., 1995, Prot. Express. Purific., 6, 134). CHO-K1 clone 7 (CHO-CCR2B) was identified as the highest MCP-1 receptor B expressor. […]
ii) Preparation of Membrane Fragments […]
^125I MCP-1 was prepared using Bolton and Hunter conjugation (Bolton et al., 1973, Biochem. J., 133, 529; Amersham International plc]. Equilibrium binding assays were carried out using the method of Ernst et al., 1994, J. Immunol., 152, 3541. Briefly, varying amounts of ^125I-labeled MCP-1 were added to […] of purified CHO-CCR2B cell membranes in […] of Binding Buffer. After 1 hour incubation at room temperature the binding reaction mixtures were filtered and washed 5 times through a plate washer (Packard Harvester Filtermate™ 196). Scintillation fluid (25 μl, Microscint™-20, a high efficiency liquid scintillation counting cocktail for aqueous samples) was added to each well and the plate was covered with plate sealer and counted (Packard Top Count™). […] Non-specific binding was determined by the inclusion of a 200-fold molar excess of unlabelled MCP-1 in the reaction. […]
For the molecule `COc1ccc(Cn2c(C(=O)O)cc3cc(F)ccc32)cc1` [Example 3.23, 5-Fluoro-N-(4-methoxybenzyl)indole-2-carboxylic acid], the IC50 was determined as 7.38 µM.

The same data set, now with this note: membrane fragments from CHO-CCR2B cells; cold competition with 125I-labeled MCP-1; read-out: IC50 of MCP-1 binding to CCR2B.
Take “MCP-1: human Monocyte Chemoattractant Protein-1, a C—C chemokine; natural ligand used to validate the assays”: the IC50 came to 0.00011 µM.

The data set is the same for the next values; noted with them: membrane fragments from CHO-CCR2B cells; equilibrium binding.
In turn, “MCP-1: human Monocyte Chemoattractant Protein-1, a C—C chemokine; natural ligand used to validate the assays” had a Kd of 0.12 nM.

System in a further data set: not given
Assay: not given
Settings: not given
Consider `CC(=O)Nc1ccc2c(c1)cc(C(=O)O)n2Cc1ccc(Cl)c(Cl)c1` [Example 4, N-(3,4-Dichlorobenzyl)-5-acetylaminoindole-2-carboxylic acid], for which the melting point fell in the range of 245 to 246 °C.
`O=C(O)c1cc2ccc([N+](=O)[O-])cc2n1Cc1ccc(Cl)c(Cl)c1` [Example 3.64, N-(3,4-Dichlorobenzyl)-6-nitroindole-2-carboxylic acid] showed a melting point of 256 to 257 °C.
`COc1cccc2c1cc(C(=O)O)n2Cc1ccc(Cl)c(Cl)c1` gave a melting point of 220 to 221 °C.
The same measure, in the same setting: in the case of `O=C(O)c1c([C@@H]2C[C@H]2C(=O)O)c2ccccc2n1Cc1ccc(Cl)c(Cl)c1` (relative stereo) [Example 3.58, N-(3,4-Dichlorobenzyl)-3-(trans-2-carboxy-cyclopropyl)indole-2-carboxylic acid] it was 184 to 185 °C; in that of `CC(=O)c1ccc2c(c1)cc(C(=O)O)n2Cc1ccc(Cl)c(Cl)c1` [Example 3.85, 5-Acetyl-N-(3,4-Dichlorobenzyl)indole-2-carboxylic acid], 261 to 262 °C.
Same read-out and setting: in the case of `CC(=O)c1c(C(=O)O)n(Cc2ccc(Cl)c(Cl)c2)c2ccccc12` it was 163 to 164 °C; in that of `CCOC(=O)c1cc2cc([N+](=O)[O-])ccc2n1Cc1ccc(Cl)c(Cl)c1` [Example 1.03, Ethyl N-(3,4-dichlorobenzyl)-5-nitroindole-2-carboxylate], 133 to 140 °C.
`O=C(O)c1cc2ccccc2n1Cc1ccc(Cl)c(Cl)c1` showed a melting point of 198 °C.
The same measure, in the same setting: in the case of `CCOC(=O)c1cc2cc(Br)ccc2n1Cc1ccc(Cl)c(Cl)c1` [Example 1.04, Ethyl 5-bromo-N-(3,4-dichlorobenzyl)indole-2-carboxylate] it was 95 to 96 °C; in that of `O=C(O)c1cc2ccc(Cl)cc2n1Cc1ccc(Cl)c(Cl)c1`, 219 to 220 °C.
Still for that read-out and setting: in the case of `COc1ccc2cc(C(=O)O)n(Cc3ccc(Cl)c(Cl)c3)c2c1` it was 165 to 166 °C; in that of `O=C(O)c1cc2c([N+](=O)[O-])cccc2n1Cc1ccc(Cl)c(Cl)c1` [Example 3.65, N-(3,4-Dichlorobenzyl)-4-nitroindole-2-carboxylic acid], 296 to 297 °C.
The same measure, in the same setting: in the case of `O=C(O)c1cc2ccc(C(F)(F)F)cc2n1Cc1ccc(Cl)c(Cl)c1` it was 238 to 239 °C.
`O=C(O)c1cc2cc(Br)ccc2n1Cc1ccc(Cl)c(Cl)c1` came in with a melting point of 232 to 233 °C.

The values are drawn from US6953809B2, “Monocyte chemoattractant protein-1 inhibitor compounds” (Zeneca Limited, priority 1997, dated 2005).
